The text below walks through data of patent US20240099997A1, “METALLOENZYME MODULATORS” (Regents of the University of Minnesota, priority 2022, published 2024).

This assay addresses T1, horse heart myoglobin (Mb) (Equus caballus, UniProt P68082).
T1 construct: Lyophilized horse heart Mb, human Hb, equine heart cytochrome c were in their ferric form when dissolved in buffer; purchased Sigma M1882; host or cells: horse heart
The assay can be described thus: UV-Vis spectrophotometric ligand affinity study, myoglobin. To be noted: ferric horse heart Mb, PBS pH 7.4, Soret shift 409 to 422 nm; read-out: Kd (binding affinity to ferric Mb heme). The procedure: UV-Vis spectrophotometric ligand affinity studies for ferric and ferrous-oxy heme proteins were performed using a Cary4000 UV-Vis spectrophotometer. These studies were performed in an aerobic environment. Lyophilized horse heart Mb, human Hb, equine heart cytochrome c were in their ferric form when dissolved in buffer. DosS GAF-A was purified in its ferric form. Ferrous-oxy forms of Mb and hemoglobin (Hb) were prepared by addition of a small aliquot of sodium dithionite to the proteins (in air) and running the protein through PD-10 columns twice to remove excess dithionite/other products. […] The protein concentration was set to ˜1 μM to obtain a desirable absorbance reading at the Soret peak region. […] For those fragments with some intrinsic absorbance in the aforementioned region, a second titration was performed with the same conditions, but without protein. […]
UV-Vis spectrophotometric ligand affinity studies for ferrous heme proteins were performed using a Cary 60 UV-Vis spectrophotometer. […] The sum of the maximal and minimal differences in absorbance was plotted for each concentration point for each ligand. […]
where Y is the observed change in absorbance, A is the maximum change in absorbance, Kd is the dissociation constant of the ligand, L is the ligand concentration and P is the protein concentration. The maximal change in absorbance, A, is obtained through nonlinear regression. […]

SMILES strings stand for the structures.

T1 sequence (P68082 whole entry): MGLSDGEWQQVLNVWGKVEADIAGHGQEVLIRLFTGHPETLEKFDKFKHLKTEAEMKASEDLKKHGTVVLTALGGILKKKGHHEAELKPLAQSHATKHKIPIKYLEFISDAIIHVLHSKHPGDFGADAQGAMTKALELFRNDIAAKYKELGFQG

For the molecule `N#CN1CCSCC1` [HT-N1, thiomorpholine N-carbonitrile], the dissociation constant Kd is 2.57 ± 0.328 mM.

The term Kd denotes the free concentration of one partner at which half of the binding sites on the other are occupied at equilibrium, for simple one-to-one binding.
